From ChEMBL document CHEMBL3822369, “Structure-Based Design of an in Vivo Active Selective BRD9 Inhibitor” (J Med Chem, 2016)

Legend:
[1] = Cmax in BomTac:NMRI-Foxn1nu mouse at 180 mg/kg, po administered as suspension; type: ADME, organism-based; set-up: dose 180 mg/kg, route oral; settings: in vivo
[2] = Apparent permeability in human Caco2 cells across apical side to basolateral side at 10 uM by LC-MS/MS analysis; type: ADME, cell-based; settings: Caco-2
[3] = Oral bioavailability in BomTac:NMRI-Foxn1nu mouse at 20 mg/kg, administered as suspension; type: ADME, organism-based; settings: in vivo
[4] = Cmax in BomTac:NMRI-Foxn1nu mouse at 20 mg/kg, po administered as suspension; type: ADME, organism-based; set-up: dose 20 mg/kg, route oral; settings: in vivo
[5] = Volume of distribution at steady state in BomTac:NMRI-Foxn1nu mouse plasma at 5 mg/kg, iv administered as bolus; type: ADME, organism-based; settings: read-out: Vdss
[6] = Aqueous solubility of the compound at pH 6.8 by UPLC/UV method; type: physicochemical; settings: buffer
[7] = AUC (0 to last) in BomTac:NMRI-Foxn1nu mouse at 20 mg/kg, po administered as suspension; type: ADME, organism-based; set-up: dose 20 mg/kg, time 0 - last, route oral; settings: in vivo
[8] = system: Mus musculus; assay: (§1) Oral bioavailability in BomTac:NMRI-Foxn1nu mouse at 180 mg/kg, administered as suspension; type: ADME, organism-based; settings: in vivo
[9] = system: Mus musculus; assay: AUC (0 to last) in plasma of CIEA-NOG mouse xenografted with human EOL-1 cells at 180 mg/kg, po administered qd for day 5 to 17 and day 20 to 22 post tumor transplantation; type: ADME, organism-based, EOL1; set-up: dose 180 mg/kg, time 0 - last, route oral; settings: in vivo
[10] = system: Mus musculus; assay: Clearance in BomTac:NMRI-Foxn1nu mouse plasma at 5 mg/kg, iv administered as bolus; type: ADME, organism-based; settings: in vivo
[11] = AUC (0 to last) in BomTac:NMRI-Foxn1nu mouse at 180 mg/kg, po administered as suspension; type: ADME, organism-based; set-up: dose 180 mg/kg, time 0 - last, route oral; settings: in vivo
[12] = as §1; type: ADME, organism-based; settings: BomTac:NMRI-Foxn1nu, in vivo

Question: Which results are given for COc1cc(-c2cn(C)c(=O)c3cnccc23)c(OC)cc1CN(C)C?
Answer: Cmax [1]: 35 µM; Papp A→B at 10 µM [2]: 11 ×10⁻⁶ cm/s; bioavailability [3]: 88%; Cmax [4]: 5.4 µM; Vd [5]: 2.1 L/kg; solubility [6]: > 90 µg/mL; AUC(0-t) [7]: 15 µM·h; F [8]: 151%; AUClast [9]: 268 µM·h; CL [10]: 65%; AUC(0-t) [11]: 226 µM·h

Question: With COc1cc(-c2cn(C)c(=O)c3cnccc23)cc(OC)c1CN(C)C as the compound, how does the Cmax [1] read?
Answer: Its Cmax is 25 µM.

Question: What about the Papp A→B at 10 µM [2] of the same compound?
Answer: The Papp A→B at 10 µM was 1.4 ×10⁻⁶ cm/s.

Question: What about the bioavailability [3] of the same compound?
Answer: Its bioavailability is 39%.

Question: And the Cmax [4]?
Answer: Its Cmax is 3 µM.

Question: What about the Vd [5] of the same compound?
Answer: The Vd was 1.6 L/kg.

Question: What about the solubility [6] of the same compound?
Answer: Its solubility is over 91 µg/mL.

Question: And the AUC(0-t) [7]?
Answer: The AUC(0-t) was 7.5 µM·h.

Question: What about the bioavailability [12] of the same compound?
Answer: The bioavailability was 64%.

Question: What about the CL [10] of the same compound?
Answer: The CL was 57%.

Question: And the AUC(0-t) [11]?
Answer: Its AUC(0-t) is 108 µM·h.
